Data reported in patent US20020028237A1, “Method for reducing toxicity of a cytotoxic agent” (priority 2000, published 2002).

Experiments:
Lewis lung tumors = experiment: Growth of SC Lewis lung tumors
Description: Doxil® was administered 4 mg/kg IV, weekly for 3 cycles. Amifostine, 100 or 200 mg/kg IV, was administered before and 1, 2, and 3 days after each Doxil® treatment cycle.

PPE lesions = experiment: Rat model of Doxil-induced palmar-plantar erythrodysesthesia (PPE); type: in vivo, Sprague-Dawley rats
Description: PPE score is the product of Severity Score and percentage of body area affected. Overall PPE score is the sum of scores for each body area.
24 male Sprague-Dawley rats weighing between 250 to 300 grams(g) were intravenously (IV) treated with Doxil® weekly for 5 cycles of administration. The dosage administered was 2.5 mg/kg IV. […] The rats were observed weekly for lesions and scoring (FIG. 1). Scores for severity and percentage affected body area were analyzed and reported on final observation.
Sprague-Dawley rats were treated with amifostine at a dosage of 100 or 200 milligram/kilogram (mg/kg) IV, weekly, approximately 15 minutes before each Doxil® injection or treated with amifostine, 100 mg/kg IV, twice weekly at 15 min before and 3 days after Doxil injection (FIG. 2).

C26 colon tumors = experiment: Survival of mice with IP C26 colon tumors; type: in vivo, BalbC mice; details: amifostine 200 mg/kg for five administrations
Description: Euthanasia was provided for animals with weight loss greater than 20% or with clinical signs of distress. Survival of female BalbC mice with IP C26 colon tumors treated once with Doxil® (8 mg/kg) (tumor inoculation: 10^6 cells IP). Animals were administered 200 mg/kg of amifostine subcutaneously (SC) prior to Doxil® administration and 1, 2, 4 and 6 days after Doxil® administration (FIG. 4).

[1] = tested on: canine non-Hodgkin's lymphoma; details: cited from earlier work
[2] = tested on: murine and human xenograft tumor models; details: in vivo; cited from earlier work

Row | Compound | rate of tumor growth (Lewis lung tumors; Doxil 4 mg/kg IV weekly for 3 cycles, amifostine 100 or 200 mg/kg IV before and 1, 2, 3 days after each Doxil) | toxicity to the animals (Lewis lung tumors; amifostine 200 mg/kg days 0-3 of each Doxil treatment cycle) | overall PPE severity score (PPE lesions; amifostine 100 mg/kg IV twice weekly, 15 min before and 3 days after Doxil 2.5 mg/kg, p<0.02) | overall PPE severity score (PPE lesions; amifostine 100 mg/kg IV weekly, 15 min before each Doxil 2.5 mg/kg, not significant) | overall PPE severity score (PPE lesions; amifostine 200 mg/kg IV weekly before each Doxil 2.5 mg/kg, p<0.01) | incidence of PPE (PPE lesions; amifostine treatment with liposomal doxorubicin 2.5 mg/kg weekly) | toxicity (weight loss, lethargy) (C26 colon tumors) | likelihood of severe PPE and discontinuation, placebo-treated versus pyridoxine-treated dogs (relative risk) ([1]; liposomal doxorubicin 1 mg/kg q 3 weeks x5, pyridoxine 50 mg tid oral 15 weeks, p=0.032) [fold] | remission rates between groups ([1]; pyridoxine versus placebo) | duration of remission ([1]; pyridoxine-treated dogs, placebo 48 days, p=0.084) [days] | survival ([1]; pyridoxine-treated dogs, placebo 130 days, p=0.182) [days] | effect of pyridoxine co-treatment on therapeutic effect of liposomal doxorubicin [2]
1 | NCCCNCCSP(=O)(O)O [amifostine] | did not affect rate of tumor growth | not significantly toxic | 4.33 | 7.94 | 3.18 | reduced | Significant toxicity |  |  |  |  | 
2 | Cc1ncc(CO)c(CO)c1O [pyridoxine] |  |  |  |  |  |  |  | 4.2 | No difference | 159 | 201 | does not reduce the therapeutic effect
